Key:
parent strain ABM201 = experiment: Growth of parent strain on Vincent's YEM agar amended with glyphosate; assay type: cell-based, Bradyrhizobium japonicum
Description: (§1) After the plates were sufficiently dry, about 10^8 to 5×10^8 colony-forming units (CFU) of the parent bacteria (ABM201) (Advanced Biological Marketing, Van Wert, Ohio), determined by serial dilution and plating on nonselective medium, were spread with a sterile, bent glass rod. The plates were carefully wrapped with Parafilm® to prevent the desiccation of the agar growth medium during prolonged incubation. The plates were then incubated at room temperature to 30° C. for approximately 2 to 3 weeks.

[1] = test system: herbicide resistant mutants of B. japonicum strain ABM 201; experiment: Growth of glyphosate-resistant mutant on Vincent's YEM agar amended with glyphosate; assay type: cell-based, Bradyrhizobium japonicum; conditions: 80 ppm glyphosate; exemplary embodiment (resistant mutant)
Description: as §1
Colonies that developed resembled the parent strain and its growth characteristics on non-selective YEM medium. The colonies were convex, entirely opaque, smooth, and only about 1 mm in diameter after 10-14 days of incubation. Mutant frequency was about 5×10^−7 to 1×10^−6.

O=C(O)CNCP(=O)(O)O [glyphosate, N-(phosphonomethyl)glycine]
glyphosate concentration that totally inhibits the parent strain (parent strain ABM201): less than 40 ppm
growth and viability on glyphosate [1]: normal growth and viability

Reference: patent US8772576B2, “Herbicide-resistant inoculant strains” (priority 2009, dated 2014)
